Results reported in patent US9884084B2, “Bone loss preventing and bone regeneration or bone formation promoting pharmaceutical composition comprising muramyl dipeptide” (SNU R&DB FOUNDATION, priority 2012, dated 2018).

Columns and labels:
Runx2 [1] = assay: 6XOSE/Luc luciferase reporter assay of Runx2 transcriptional activity in MC4 cells; format: cell-based
Protocol: Further to examine whether the increased expression of Runx2, which is a transcription factor, affects the expression of other genes regulated by Runx2, the following experiments were performed. For this, MC4 cells were seeded onto each well of a 96 well plate at the concentration of 20,000 cells/well and the cells were transfected with a plasmid 6XOSE/Luc reporter vector (Journal of Biological Chemistry. 285: 3568-3574 (2010)) which expresses luciferase gene under the control of osteocalcin using Lipofectamin® (Life technologies, Inc) according to the manufacturer's instruction. The promoter in the plasmid contains […] to each of which Runx2 binds. By binding of Runx2 to the motif, the expression of luciferase increases. After 16 hrs after the transfection, MDP at the concentration as indicated in FIG. 3 was added to the cells. After 24 hrs, the cells were lysed and the luciferase activity was measured using Luciferase detection kit (Promega, USA) according to the manufacturer's instruction to quantify the mRNA level of osteocalcin gene, which is affected by Runx2.
In addition to MDP as used in Example 2-1, as a derivative thereof, M-TriLYS (MurNAc-Ala-D-isoGln-Lys, N-acetylmuramyl-L-alanine-D-isoglutamine-lysine) and 6-O-stearoyl-N-acetylmuramyl-L-alanyl-D-isoglutamine (L18-MDP) were used to examine the effect of the derivatives on the expression of Runx2 at transcription level. M-TriLYS is a muropeptide obtainable from peptidoglycans of lactobacillus or salivarius and contains in its structure muramyl dipeptide. L18-MDP is a MDP derivative containing C18 fatty acid.

[2] = tested on: osteoblast cell line MC4 cells (MC3T3-E1 Subclone 4); assay: Osteoblast differentiation by alkaline phosphatase (ALP) staining, MC4 cells; format: cell-based; conditions: 0.1, 1 and 10 μg/ml MDP, 5 days, differentiation medium; FIG. 1
Protocol: N-acetylmuramyl-L-Alanyl-D-Isoglutamine commercially available from Invivogen Inc. was dissolved in endotoxin free purified water to make a solution of 5 mg/ml. To assess the effect of muramyl dipeptide on the differentiation of osteoblast, osteoblast cell line MC4 cells (ATCC CRL-2593:MC3T3-E1 Subclone 4) were incubated in an ascorbic acid free-αMEM medium containing 10% fetal bovine serum, 50 unit/ml penicillin, 50 μg/ml streptomycin at 37° C. under 100% humidity and 5% CO2 atmosphere. The medium was changed every 3 days.
Then MC4 cells were seeded onto each well of a 48 well plate at the concentration of 20,000 cells/well and then after 16 hrs, each well was treated for 5 days with 400 μl of 0, 0.1, 1 and 10 μg/ml of MDP as prepared above in the differentiation medium (50 μg/ml ascorbic acid and 10 mM beta-glycerophosphate containing αMEM), during which half of the medium was changed twice with the differentiation medium. The effect on the differentiation was analyzed using alkaline phosphatase (ALP) staining. Results are shown in FIG. 1, in which the effect on the differentiation was determined by the number of cells showing red-purple color as well as the intensity of the color. […] Each experiment was repeated at least 3 times.

Runx2 [3] = assay: RT-PCR of Runx2 mRNA in MC4 cells; format: cell-based; conditions: 6 hrs, normalized relative to β-actin, FIG. 2 upper part
Protocol: Then, total mRNA was extracted from the cells and incubated with random primer at 70° C. for 5 min. After that reverse transcriptase, buffer for RT and dNTPs were added to the reaction mixture and incubated at 42° C. for 1 hr to synthesize cDNA, which was then used as a template for PCR to amplify Runx2 using specific primers as described in Table 1 and using the following condition: cDNA was initially denatured at 94° C. for 5 min followed by 25 cycles at 95° C. for 40 s, 59° C. for 40 s, and 72° C. for 40 s and final extension for 5 min at 72° C. […] The results were normalized relative to β-actin data.

Runx2 [4] = assay: Immunoblot of Runx2 protein in MC4 cells; format: cell-based; conditions: 24 hrs, β-actin loading control, FIG. 2 lower part
Protocol: Also to examine the effect at the protein level, whole cell extract was prepared from the cells treated with MDP for 24 hrs as described above, and 40 μg of extract was used for SDS-PAGE electrophoresis. Then the gel was transferred to a PVDF membrane and immunoblot was performed using an antibody specific to Runx2 (Abcam, USA). […] The β-actin was used as a loading control.

WT C57BL/6 (B6) mice [5] = assay: Bone volume of mouse femur by microCT after MDP administration; format: in vivo
Protocol: Six-week-old WT C57BL/6 (B6) mice were purchased from Orient Company Ltd (Seoul, Korea). The animals were maintained at a controlled temperature (21±1° C.) and humidity (55±1%) with a 12/12-h light-dark cycle without any restriction of food and water. All animal experiments were performed following the protocol approved by the Institutional Animal Care and Use Committee of CRISNUH.
(§1) To each mouse, 1.25 mg/kg of MDP prepared as described in Example 1 was administered twice with a 4 day interval by intraperitoneal injection. Physiological saline was used as a control. The second injection was given 4 days after the first injection and after 3 days the mice were sacrificed and used for bone volume analysis.
A right femur was removed from the sacrificed mouse and stripped of the muscle. The excised femur was then fixed in 10% of neutral formalin for one day at the least, which was then analyzed for bone volume using microCT. […] In FIG. 5, BV/TV=Bone volume/Tissue volume=% bone volume.

WT C57BL/6 (B6) mice [6] = assay: Histological observation (H&E) of mouse femur; format: in vivo; conditions: 1.25 mg/kg i.p. twice, vs physiological saline control; FIG. 6
Protocol: as §1
The femur used for the analysis of bone volume in Example 3-3 was used for a histological observation. For this, the femur was demineralized in 10% EDTA for 7 days and washed with running water for 12 hrs in a tissue capsule. After that, the femur was treated with alcohol and xylene and embedded in paraffin, from which sections having a thickness of 4 μm were prepared. The sections were then placed on a slide glass and deparaffinized at 65° C. for 30 min and treated with Hematoxylin and Eosin according to the conventional method.
The slides were then examined with a light microscope to observe the bone formation.

osteoblast = assay: OPG and RANKL regulation in the osteoblast (data not shown); format: cell-based
[7] = tested on: mouse model treated with GST-RANKL; assay: GST-RANKL induced bone loss mouse model, microCT bone volume; format: in vivo; conditions: pretreatment 1.25 mg/kg i.p. twice, then GST-RANKL 1 mg/kg i.p. three times; vs controls not pretreated; FIG. 8
Protocol: Muramyl dipeptide was administered to a mouse by an intraperitoneal injection two times with four day interval between the administration at the concentration of 1.25 mg/kg. After 3 days of the administration, GST-RANKL recombinant protein was intraperitoneally administered at the concentration of 1 mg/kg three times with a 24 hr interval between the administrations, The bone volume was analyzed at 1 day after the last administrated with GST-RANKL. The recombinant protein was prepared using a RANKL expression vector, pGEX-GST-RANKL (J. Clin Invest. 106:1481-1488 (2000)), which was expressed in E. coli and the protein was purified using a sepharose gel attached with glutathione (glutathione-sepharose gels, Sigma-Aldrich). The purified protein was then treated with Detoxi-gel endotoxin removing gel (Thermo Scientific, USA) to remove endotoxin and used for the experiment. Seven days after the administration, mice were sacrificed and the bone volume was measured using a microCT. As controls, mice treated only with physiological saline, GST-RANKL or physiological saline and GST-RANKL in a consecutive order were used.

[8] = tested on: RANKL-primed osteoclast precursors; assay: Osteoclast differentiation from RANKL-primed osteoclast precursors, TRAP staining; conditions: 20 ng/ml M-CSF, 3 days; FIG. 7 right graph
Protocol: Bone marrow cells (BMs) were isolated from the long bones of mouse and were cultured in α-MEM supplemented with 10% FBS, 100 U/ml penicillin and 100 μg/ml streptomycin, and 2 ng/ml M-CSF for 1 day. Suspended cells were differentiated into BMMs with 20 ng/ml M-CSF for 3 days. […] To make RANKL-primed osteoclast precursors, the BMMs were stimulated with 20 ng/ml mouse RANKL for 48 h. The BMMs were incubated with 20 ng/ml M-CSF in the presence or absence of MDP for additional 3 days.
The differentiation was determined by tartrate resistant acid phosphatase (TRAP) staining using Leukocyte acid phosphate-staining kit (Sigma-Aldrich Chemical, USA) according to the manufacturer's instruction. After the staining, TRAP-positive multinucleated cells with at least 3 nuclei were enumerated as mature osteoclasts with an inverted phase-contrast microscope and results are shown in FIG. 7.

[9] = 1.25 mg/kg i.p. twice, vs physiological saline control, FIG. 5

Substance | expression of Runx2 at the transcriptional level (reporter) (Runx2 [1]; FIG. 3B) | activity on Runx2 compared with MDP (Runx2 [1]; higher than that of MDP, FIG. 3B) [times] | differentiation of MC4 (ALP staining) [2] | mRNA expression of Runx2 (Runx2 [3]) | expression of Runx2 protein (Runx2 [4]) | luciferase activity (transcription of osteocalcin, affected by Runx2) (Runx2 [1]; MC4 cells, 24 hrs after addition, FIG. 3A) | bone volume (microCT 3D image) (WT C57BL/6 (B6) mice [5]; 1.25 mg/kg i.p. twice with 4 day interval, right femur, vs physiological saline, FIG. 4) | Trabecular bone volume (BV/TV) (WT C57BL/6 (B6) mice [5]; [9]) | Trabecular number (Tb.N) (WT C57BL/6 (B6) mice [5]; [9]) | Trabecular thickness (Tb.Th) (WT C57BL/6 (B6) mice [5]; [9]) | spongy bone in femur sections (H&E) (WT C57BL/6 (B6) mice [6]) | Osteoprotegerin (OPG) regulation in the osteoblast (osteoblast) | RANKL regulation in the osteoblast (osteoblast) | indirect effect on osteoclast differentiation (osteoblast; through OPG and RANKL in the osteoblast) | bone loss due to GST-RANKL (bone volume, microCT) [7] | osteoclast differentiation from RANKL-primed osteoclast precursors [8]
6-O-stearoyl-N-acetylmuramyl-L-alanyl-D-isoglutamine [L18-MDP] | increased the expression of Runx2 at the transcriptional level | 10 |  |  |  |  |  |  |  |  |  |  |  |  |  | 
N-acetylmuramyl-L-Alanyl-D-Isoglutamine [MDP] | increased the expression of Runx2 at the transcriptional level |  | increased in a concentration dependent manner | increased after MDP treatment in a concentration dependent manner | increased the expression of Runx2 protein | increased the transcription of osteocalcin | increase in bone volume | increased statistically significantly | increased statistically significantly | increased statistically significantly | more spongy bone was observed | up-regulation | down-regulation | indirectly alleviated osteoclast differentiation | reduced | did not affect
N-acetylmuramyl-L-alanine-D-isoglutamine-lysine [MTnLYS] | increased the expression of Runx2 at the transcriptional level |  |  |  |  |  |  |  |  |  |  |  |  |  |  | 
